According to US20120220554A1, “Combretastatins for Prevention of Posterior Capsule Opacification” (OXIGENE, INC., priority 2010, published 2012):

System: polymerized tubulin in BMI-immortalized bovine lens epithelial (BIE) cells
Test: Dimer/polymer tubulin extraction and anti-tubulin western blot in BIE cells
Type: cell-based
Settings: single 30 min treatment with 1 μM CA4P, at 30 min after start and up to 24 h after end of exposure (FIG. 4)
Description: BMI-immortalized bovine lens epithelial (BIE) cells, on plastic, and primary bovine lens epithelial cells, on their original in vivo basement membrane, (the eye lens capsule), were cultured in 10% fetal calf serum (FCS)-supplemented medium at 37° C. prior to 30 min exposure to 1 μM CA4P, after which they were returned to 10% FCS-supplemented medium. The relatively short exposure was chosen to approximate the duration of a cataract surgery procedure. At a range of time points following exposure, cells were subjected to cell viability assay (MTT-based assay, PROMEGA, UK), immunoblotting or immunofluorescence.
BMI-immortalized bovine lens epithelial cells (BIE cell line, produced in Roy Quinlan's Laboratory, University of Durham, UK), were grown at 37° C., 5% CO2, in 10 cm diameter Petri dishes in 10% fetal calf serum (FCS)-supplemented tissue culture medium (Sigma-Aldrich, UK). When nearing confluence, they were exposed to 1 μM combretastatin A 4-phosphate (CA4P) (OXiGENE, UK) diluted in 10% FCS-supplemented medium for 30 min, after which the cells were returned to 10% FCS-supplemented medium. Immediately after the end of CA4P exposure, cells were extracted to assess the proportion of dimer/polymer tubulin, as described in Lieuvin et al., 1994 (J. Cell Biology 124 (6):985-996). […]
The proportion of dimer/polymer tubulin was assessed by western blotting. […]

`COc1ccc(/C=C\c2cc(OC)c(OC)c(OC)c2)cc1OP(=O)(O)O` [CA4P, combretastatin A-4 phosphate] was tested, and the “polymerized tubulin (western blot)” value was “loss of polymerized tubulin”.
